Where “and” joins values, the source holds several entries; their conditions need not be identical. Equal values may be shown once.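 How tested: cells in 96-well plates exposed to compound for 48 hours at five concentrations. At the GI50, growth is halved. TGI marks complete inhibition of growth.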
Assays:
Assay in all cases: NCI-60 cell line screen, 48 h
[1] = system: HS 578T breast
[2] = system: UO-31 renal
[3] = system: SF-539 CNS
[4] = system: OVCAR-5 ovarian
[5] = system: SNB-75 CNS
[6] = system: IGROV1 ovarian
[7] = system: M14 melanoma
[8] = system: SR leukemia
[9] = system: SK-MEL-28 melanoma
[10] = system: COLO 205 colon

Row | Structure (SMILES) | GI50 [1] [µM] | TGI [1] [µM] | GI50 [2] [µM] | TGI [2] [µM] | GI50 [3] [µM] | TGI [3] [µM] | GI50 [4] [µM] | TGI [4] [µM] | GI50 [5] [µM] | TGI [5] | GI50 [6] [µM] | TGI [6] [µM] | GI50 [7] [µM] | TGI [7] | GI50 [8] [µM] | TGI [8] [µM] | GI50 [9] [µM] | TGI [9] [µM] | GI50 [10] [µM] | TGI [10]
1 | FC(F)(F)c1cc(NC(=S)N2c3ccccc3-n3cccc3C2c2cccnc2)cc(C(F)(F)F)c1 (centres undefined) | 12.5 | 40.6 | 19.9 | 36.9 | 14.7 | 37.4 | 22 | 59.2 | 7.07 | 22.7 µM | 8.76 | 22.9 | 11.3 | 28.2 µM | 4.64 | 22.7 | 15.7 | 37.1 | 9.07 | 21.6 µM
2 | COc1cc(NS(C)(=O)=O)ccc1Cc1c2ccccc2nc2ccccc12 | 1.72 | 8.17 | 0.126 | 1.02 | 0.118 | 1.15 | 1.03 | 4.17 | 0.188 | 1.54 µM | 0.414 | 2.88 | 0.158 | 1.43 µM |  | 0.139 | 0.672 | 2.36 | 0.0812 | 2.4 µM
3 | CC(C)=Cc1cccc2[nH]c(O)c(N=Nc3ccc(S(N)(=O)=O)cc3)c12 | 0.506 | 16.4 | > 25 | > 25 | 2.72 | > 20.1 | > 25 | > 25 | > 8.54 | > 25 µM | > 25 | > 25 | > 25 | > 25 µM | 0.593 | > 25 | > 25 | > 25 | > 9.93 | > 25 µM
4 | CC1OC(CC(=O)O)Cc2c1c(O)c1c(O)cc(-c3cc(=O)c4c(=O)c5c(c(=O)c=4c3=O)CC(CC(=O)O)OC5C)c(O)c1c2O (centres undefined) | 38.3 |  | 30.3 | > 64.5 | 59.3 | 36 | 53.1 | > 91.1 | 19.4 | > 100 µM and 57.1 µM |  | > 86.3 | 24.4 | 32 µM and 75.9 µM |  | 53.9 | 79.5 | 29.5 | 29.9 | 18.1 µM and 92.9 µM
5 | Cc1ccc(-c2nc(/C=N/Nc3cc(C)nc4ccc(Br)cc34)c(C)o2)cc1 | 17 | 38.6 | 1.65 | 3.08 | 1.72 | 3.18 | 1.86 | 3.36 | 1.74 | 3.39 µM | 1.84 | 3.52 | 1.89 | 3.63 µM | 2.67 | 7.71 | 1.73 | 3.25 | 2.03 | 3.97 µM
6 | O=C1c2ccccc2C(=O)c2c1oc1c2c(=O)[nH]c2ccc(Cl)cc21 | 0.264 | 1.37 | 0.195 | 0.605 | 0.229 | 0.566 | 3.44 | 14.7 | 0.16 | 0.418 µM | 0.222 | 0.746 | 0.397 | 1.53 µM | 0.496 | 3.94 | 0.339 | 1.23 | 10.5 | 27.6 µM
7 | O=C1OC(c2ccc(Cl)cc2)=N/C1=C\c1ccccc1 |  | > 100 |  | > 100 |  | > 100 |  | > 100 |  | > 100 µM |  | > 100 |  | > 100 µM |  | > 100 |  | > 100 |  | > 100 µM
8 | O=C(Nc1ccccc1Cl)c1ccc(NC2=C(Cl)C(=O)N(C3CCCCC3)C2=O)cc1 | 6.75 | 133 | 16.6 | 42.3 | 27.3 | 58.5 | 49.5 | 128 | 8.64 | 34.4 µM | 6.87 | 23.3 | 11.7 | 42.1 µM | 3.03 | 7.87 | 17.6 | 49.6 | 18.7 | 38.3 µM
9 | COC(=O)C1=C(C(=O)ON)[C@@H]2C=C[C@@]1([C@@H](Cc1ccccc1)Nc1ccccc1)O2 | 19.5 | 68.7 | 1.51 | 2.84 | 15.5 | 29 | 15.6 | 31 | 12.4 | 24.9 µM | 2.03 | 4.01 | 1.87 | 3.89 µM | 2.02 | 10.4 | 1.93 | 3.54 | 1.77 | 3.57 µM
10 | CCOC(=O)Nc1ccc2c(c1)C(=O)N(CC)c1ccccc1O2 | 0.117 | > 100 | 0.379 | > 100 | 0.0942 | 0.643 |  | > 100 | 0.188 | > 100 µM | 0.265 | > 100 | 0.0617 | > 100 µM | 0.0479 |  | 12.5 | > 100 | 0.0819 | 0.617 µM
